Reference: the NIST ThermoML archive (doi:10.1016/j.jct.2013.08.031)
Numbers after ± are expanded uncertainties.

Test: mn = molality of the nth substance listed, in mol/kg
Settings: 74.66 kPa, Liquid, Vibrating tube method

CCCC[N+](CCCC)(CC(C)C)CC(C)C.[Br-] [N-butyl-N,N-bis(2-methylpropyl)-1-butanaminium bromide] + O
mass density [kg/m3]
Settings | m1 = 0.01065 | m1 = 0.01998 | m1 = 0.0287 | m1 = 0.03815 | m1 = 0.04991 | m1 = 0.05935 | m1 = 0.06884 | m1 = 0.08078 | m1 = 0.0922 | m1 = 0.1044
298.15 K | 997.571 ± 0.11 | 998.046 ± 0.11 | 998.493 ± 0.11 | 998.971 ± 0.11 | 999.575 ± 0.11 | 1000.05 ± 0.11 | 1000.54 ± 0.11 | 1001.16 ± 0.11 | 1001.72 ± 0.11 | 1002.35 ± 0.11
303.15 K | 996.173 ± 0.11 | 996.647 ± 0.11 | 997.094 ± 0.11 | 997.573 ± 0.11 | 998.175 ± 0.11 | 998.652 ± 0.11 | 999.131 ± 0.11 | 999.751 ± 0.11 | 1000.31 ± 0.11 | 1000.94 ± 0.11
308.15 K | 994.575 ± 0.11 | 995.047 ± 0.11 | 995.492 ± 0.11 | 995.975 ± 0.11 | 996.571 ± 0.11 | 997.048 ± 0.11 | 997.529 ± 0.11 | 998.152 ± 0.11 | 998.702 ± 0.11 | 999.327 ± 0.11

CCCC[N+](CCCC)(C(C)CC)C(C)CC.[Br-] (stereo not given) [N-butyl-N,N-bis(1-methylpropyl)-1-butanaminium bromide] + O
mass density [kg/m3]
Settings | m1 = 0.01181 | m1 = 0.02026 | m1 = 0.03102 | m1 = 0.04017 | m1 = 0.05043 | m1 = 0.0598 | m1 = 0.06968 | m1 = 0.08191 | m1 = 0.09038 | m1 = 0.1036
298.15 K | 997.635 ± 0.11 | 998.067 ± 0.11 | 998.623 ± 0.11 | 999.106 ± 0.11 | 999.638 ± 0.11 | 1000.14 ± 0.11 | 1000.66 ± 0.11 | 1001.3 ± 0.11 | 1001.76 ± 0.11 | 1002.47 ± 0.11
303.15 K | 996.234 ± 0.11 | 996.663 ± 0.11 | 997.215 ± 0.11 | 997.699 ± 0.11 | 998.223 ± 0.11 | 998.719 ± 0.11 | 999.241 ± 0.11 | 999.878 ± 0.11 | 1000.33 ± 0.11 | 1001.03 ± 0.11
308.15 K | 994.634 ± 0.11 | 995.062 ± 0.11 | 995.611 ± 0.11 | 996.096 ± 0.11 | 996.617 ± 0.11 | 997.117 ± 0.11 | 997.631 ± 0.11 | 998.265 ± 0.11 | 998.711 ± 0.11 | 999.421 ± 0.11
